Measurements as given in ChEMBL document CHEMBL3727374, “Compounds, pharmaceutical compositions, and methods of treating or preventing neurodegenerative diseases or disorders” (2012).
Activity calls are given as the source filed them. No cut-off for these calls is given here.

Tests used:
Huntingtin = Huntingtin (Homo sapiens, UniProt P42858); test: Inhibition of GFP-fused Huntingtin protein Q103/Q25 mutant (unknown origin) […] assessed as protection against huntingtin protein aggregation incubated for 48 hrs by multiplexed assay based HTT f3(agr) method; format: cell-based; conditions: pc-12
STHdhQ111 [1] = test: Cytoprotective activity in mouse STHdhQ111 cells assessed as protection against H2O2-induced cell death at 10 nM to 1 uM by MTT assay; format: functional, cell-based
STHdhQ111 [2] = test: Cytoprotective activity in mouse STHdhQ111 cells assessed as protection against beta-amyloid-induced cell death at 10 nM to 1 uM by MTT assay; format: functional, cell-based
[3] = target: T1, Phosphatidylinositol 5-phosphate 4-kinase type-2 gamma (Homo sapiens, UniProt Q8TBX8); test: Inhibition of PIP5K2C (unknown origin)
T1 sequence (Q8TBX8 whole entry): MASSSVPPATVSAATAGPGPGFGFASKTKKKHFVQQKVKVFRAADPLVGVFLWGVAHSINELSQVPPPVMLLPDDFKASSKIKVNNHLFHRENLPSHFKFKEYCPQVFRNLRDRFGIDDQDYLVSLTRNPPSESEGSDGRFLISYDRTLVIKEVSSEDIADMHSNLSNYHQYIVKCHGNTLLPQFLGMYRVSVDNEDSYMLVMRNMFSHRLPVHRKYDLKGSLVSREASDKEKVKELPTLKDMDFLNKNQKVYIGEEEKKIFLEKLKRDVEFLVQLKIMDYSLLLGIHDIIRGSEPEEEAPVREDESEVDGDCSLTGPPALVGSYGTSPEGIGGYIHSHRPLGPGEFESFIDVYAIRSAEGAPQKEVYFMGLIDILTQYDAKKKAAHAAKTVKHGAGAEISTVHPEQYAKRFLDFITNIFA

[4] = Stability in mouse liver microsomes assessed as parent compound remaining at 5 uM incubated for 60 mins in absence of NADPH; format: ADME; conditions: read-out: Stability
[5] = Stability in mouse liver microsomes assessed as parent compound remaining at 5 uM incubated for 60 mins in presence of NADPH; format: ADME; conditions: read-out: Stability
[6] = Stability in mouse liver microsomes assessed as parent compound remaining at 1 uM incubated for 60 mins in presence of NADPH; format: ADME; conditions: read-out: Stability
[7] = Stability in mouse liver microsomes assessed as parent compound remaining at 1 uM incubated for 60 mins in absence of NADPH; format: ADME; conditions: read-out: Stability
STHdhQ111 [8] = test: Cytoprotective activity in mouse STHdhQ111 cells against serum free medium-induced apoptotic cell death assessed as inhibition of caspase-9 activation incubated for 16 hrs; format: functional, cell-based
STHdhQ111 [9] = test: Cytoprotective activity in mouse STHdhQ111 cells against serum free medium-induced apoptotic cell death assessed as inhibition of caspase-3 activation incubated for 16 hrs; format: functional, cell-based

Chain of Huntingtin (P42858 whole entry, looked up, stated change not applied, the tested form may be a part): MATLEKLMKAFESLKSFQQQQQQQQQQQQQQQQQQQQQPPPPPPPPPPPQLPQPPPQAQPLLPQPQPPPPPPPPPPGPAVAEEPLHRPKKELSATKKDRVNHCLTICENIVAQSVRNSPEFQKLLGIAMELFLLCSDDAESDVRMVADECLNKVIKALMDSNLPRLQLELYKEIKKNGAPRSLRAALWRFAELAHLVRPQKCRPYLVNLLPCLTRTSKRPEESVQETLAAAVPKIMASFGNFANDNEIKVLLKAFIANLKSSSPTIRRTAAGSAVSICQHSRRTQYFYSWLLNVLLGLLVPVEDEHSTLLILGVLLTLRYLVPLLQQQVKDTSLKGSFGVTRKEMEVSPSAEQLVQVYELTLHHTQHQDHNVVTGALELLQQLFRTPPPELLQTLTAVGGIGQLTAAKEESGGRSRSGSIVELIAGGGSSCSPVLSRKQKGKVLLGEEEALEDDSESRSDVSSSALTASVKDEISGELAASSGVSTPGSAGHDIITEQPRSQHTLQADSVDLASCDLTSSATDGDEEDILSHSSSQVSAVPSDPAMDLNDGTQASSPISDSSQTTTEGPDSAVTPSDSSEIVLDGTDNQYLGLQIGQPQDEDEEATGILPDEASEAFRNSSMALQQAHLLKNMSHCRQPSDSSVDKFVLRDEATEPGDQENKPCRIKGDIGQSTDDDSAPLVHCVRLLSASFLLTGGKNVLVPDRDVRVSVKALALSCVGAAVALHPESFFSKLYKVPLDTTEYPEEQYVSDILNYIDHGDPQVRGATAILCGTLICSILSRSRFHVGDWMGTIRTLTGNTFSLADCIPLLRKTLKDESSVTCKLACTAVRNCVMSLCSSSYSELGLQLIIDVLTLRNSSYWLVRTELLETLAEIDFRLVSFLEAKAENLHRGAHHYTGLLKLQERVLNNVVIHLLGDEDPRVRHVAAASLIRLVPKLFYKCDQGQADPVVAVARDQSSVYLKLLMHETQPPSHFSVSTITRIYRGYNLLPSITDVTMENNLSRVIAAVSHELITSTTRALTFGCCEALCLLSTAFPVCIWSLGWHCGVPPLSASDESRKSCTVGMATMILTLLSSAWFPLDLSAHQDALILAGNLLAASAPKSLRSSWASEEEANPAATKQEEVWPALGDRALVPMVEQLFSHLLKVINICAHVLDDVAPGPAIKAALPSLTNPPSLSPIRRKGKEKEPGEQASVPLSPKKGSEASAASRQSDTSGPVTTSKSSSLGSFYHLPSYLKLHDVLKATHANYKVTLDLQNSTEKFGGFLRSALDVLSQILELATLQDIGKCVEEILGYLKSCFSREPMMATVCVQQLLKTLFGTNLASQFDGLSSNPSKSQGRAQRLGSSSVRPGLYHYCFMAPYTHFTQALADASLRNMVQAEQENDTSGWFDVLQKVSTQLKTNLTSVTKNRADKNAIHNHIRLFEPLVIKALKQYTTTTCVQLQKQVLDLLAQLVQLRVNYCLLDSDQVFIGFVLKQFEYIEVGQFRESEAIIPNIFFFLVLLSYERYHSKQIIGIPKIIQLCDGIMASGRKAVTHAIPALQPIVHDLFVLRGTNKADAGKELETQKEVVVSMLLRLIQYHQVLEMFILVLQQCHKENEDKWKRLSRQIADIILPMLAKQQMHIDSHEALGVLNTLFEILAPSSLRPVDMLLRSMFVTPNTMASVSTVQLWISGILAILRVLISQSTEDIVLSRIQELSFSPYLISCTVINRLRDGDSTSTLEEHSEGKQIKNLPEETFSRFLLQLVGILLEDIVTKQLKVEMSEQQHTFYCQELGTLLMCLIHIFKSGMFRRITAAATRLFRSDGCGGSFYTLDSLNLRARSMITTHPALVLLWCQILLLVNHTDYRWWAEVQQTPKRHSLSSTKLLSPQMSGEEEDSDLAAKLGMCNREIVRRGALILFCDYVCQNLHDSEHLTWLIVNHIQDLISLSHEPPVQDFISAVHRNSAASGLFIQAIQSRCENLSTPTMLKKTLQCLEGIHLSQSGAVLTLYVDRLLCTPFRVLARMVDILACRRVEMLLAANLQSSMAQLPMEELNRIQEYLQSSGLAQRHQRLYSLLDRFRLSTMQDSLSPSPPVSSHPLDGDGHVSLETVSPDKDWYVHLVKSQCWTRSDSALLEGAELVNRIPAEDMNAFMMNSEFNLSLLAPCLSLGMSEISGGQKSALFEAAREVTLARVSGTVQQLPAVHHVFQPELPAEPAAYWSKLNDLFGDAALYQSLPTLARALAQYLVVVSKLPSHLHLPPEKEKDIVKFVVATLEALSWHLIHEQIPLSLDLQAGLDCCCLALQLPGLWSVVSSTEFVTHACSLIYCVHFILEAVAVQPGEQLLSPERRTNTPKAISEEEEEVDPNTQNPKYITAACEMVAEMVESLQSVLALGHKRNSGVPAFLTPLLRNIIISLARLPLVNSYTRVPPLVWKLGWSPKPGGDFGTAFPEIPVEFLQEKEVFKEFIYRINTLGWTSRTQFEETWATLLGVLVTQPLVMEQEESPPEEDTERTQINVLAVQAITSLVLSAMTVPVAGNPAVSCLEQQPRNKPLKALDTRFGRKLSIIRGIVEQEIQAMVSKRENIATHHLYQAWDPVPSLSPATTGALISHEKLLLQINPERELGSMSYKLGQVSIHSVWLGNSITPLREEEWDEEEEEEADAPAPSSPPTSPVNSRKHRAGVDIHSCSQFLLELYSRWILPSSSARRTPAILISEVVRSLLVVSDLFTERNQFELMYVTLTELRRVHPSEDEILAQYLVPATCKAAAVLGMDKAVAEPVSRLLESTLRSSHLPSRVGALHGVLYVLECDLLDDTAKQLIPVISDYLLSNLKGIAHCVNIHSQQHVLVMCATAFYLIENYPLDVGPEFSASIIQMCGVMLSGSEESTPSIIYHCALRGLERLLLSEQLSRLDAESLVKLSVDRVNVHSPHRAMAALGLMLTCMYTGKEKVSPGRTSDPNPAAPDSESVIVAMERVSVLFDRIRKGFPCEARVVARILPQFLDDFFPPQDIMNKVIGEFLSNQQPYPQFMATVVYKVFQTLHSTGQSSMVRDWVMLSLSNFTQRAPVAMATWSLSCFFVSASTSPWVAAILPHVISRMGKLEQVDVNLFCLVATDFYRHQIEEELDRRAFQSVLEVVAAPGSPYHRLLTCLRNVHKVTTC

Row | AC50 (Huntingtin) | Kd [3] | Structure (SMILES) | further results
1 | 28.2 µM | – | CC(=O)c1cccc(-c2csc3ncnc(Sc4nnnn4C)c23)c1 | Activity (STHdhQ111 [1]): Active; Activity (STHdhQ111 [2]): Active
2 | – | 5.62 µM | Cn1nnnc1Sc1ncnc2scc(-c3ccc(N)cc3)c12 | –
3 | – | 44.7 µM | Cc1ccccc1-c1csc2ncnc(Sc3nnnn3C)c12 | –
4 | 35.5 µM | > 100 µM | Cn1nnnc1Sc1ncnc2scc(-c3cccc4ccccc34)c12 | –
5 | 35.5 µM | 1.58 µM | Cn1nnnc1Sc1ncnc2scc(-c3cccc([N+](=O)[O-])c3)c12 | –
6 | 5.01 µM | 1.12 µM | Cn1nnnc1Sc1ncnc2scc(Br)c12 | –
7 | 28.2 µM | 3.98 µM | COc1cccc(-c2csc3ncnc(Sc4nnnn4C)c23)c1 | –
8 | 28.2 µM | > 100 µM | Cn1nnnc1Sc1ncnc2scc(-c3ccc(-c4ccccc4)cc3)c12 | –
9 | 15.8 µM | 63.1 µM | Cn1nnnc1Sc1ncnc2scc(-c3ccc4ccccc4c3)c12 | –
10 | 39.8 µM | 0.63 µM | Cn1nnnc1Sc1ncnc2scc(-c3cccc(S(C)(=O)=O)c3)c12 | remaining at 1 h, 5 µM [4]: 89%; remaining at 1 h, 5 µM [5]: 70%
11 | 35.5 µM | 39.8 µM | Cn1nnnc1Sc1ncnc2scc(-c3ccc(Br)cc3)c12 | –
12 | 31.6 µM | 3.98 µM | Cn1nnnc1Sc1ncnc2scc(-c3cccc(N)c3)c12 | –
13 | – | 14.1 µM | Cn1nnnc1Sc1ncnc2scc(-c3ccccc3Cl)c12 | –
14 | 22.4 µM | 11.2 µM | Cn1nnnc1Sc1ncnc2scc(-c3cccc(Cl)c3)c12 | –
15 | 35.5 µM | 6.31 µM | Cn1nnnc1Sc1ncnc2scc(-c3ccccc3F)c12 | –
16 | 39.8 µM | – | CC(=O)c1ccc(-c2csc3ncnc(Sc4nnnn4C)c23)cc1 | remaining at 1 h, 1 µM [6]: 2%; remaining at 1 h, 1 µM [7]: 91%
17 | – | > 100 µM | CS(=O)(=O)c1cccc(-c2csc3ncnc(NCCN)c23)c1 | –
18 | – | 44.7 µM | CC(=O)c1ccccc1-c1csc2ncnc(Sc3nnnn3C)c12 | –
19 | 35.5 µM | 2.82 µM | Cn1nnnc1Sc1ncnc2scc(-c3cccs3)c12 | remaining at 1 h, 1 µM [6]: 0%; remaining at 1 h, 1 µM [7]: 88%

Second part, the molecule before the results:

Row | Structure (SMILES) | AC50 (Huntingtin) | Kd [3] | further results
20 | Cn1nnnc1Sc1ncnc2scc(-c3ccc(C(F)(F)F)cc3)c12 | 35.5 µM | > 100 µM | –
21 | Cn1nnnc1Sc1ncnc2scc(-c3ccc4c(c3)OCO4)c12 | 20 µM | 12.6 µM | –
22 | Cn1nnnc1Sc1ncnc2scc(-c3cccc(F)c3)c12 | 14.1 µM | 6.31 µM | –
23 | Cn1nnnc1Sc1ncnc2scc(-c3ccccc3)c12 | 39.8 µM | 3.55 µM | –
24 | Cn1nnnc1Sc1ncnc2scc(-c3cccc(Br)c3)c12 | 35.5 µM | 2.82 µM | –
25 | Cn1nnnc1Sc1ncnc2scc(-c3ccc([N+](=O)[O-])cc3)c12 | 35.5 µM | 6.31 µM | –
26 | Cc1cccc(-c2csc3ncnc(Sc4nnnn4C)c23)c1 | 35.5 µM | 11.2 µM | –
27 | Cn1nnnc1Sc1ncnc2scc(-c3ccsc3)c12 | 35.5 µM | 7.94 µM | –
28 | Cn1nnnc1Sc1ncnc2scc(I)c12 | 35.5 µM | 0.89 µM | –
29 | Cn1nnnc1Sc1ncnc2scc(-c3cc4ccccc4o3)c12 | 7.94 µM | 2.82 µM | –
30 | Cn1nnnc1Sc1ncnc2scc(-c3cccc4c3sc3ccccc34)c12 | 35.5 µM | > 100 µM | –
31 | Cn1nnnc1Sc1ncnc2scc(-c3ccccc3C(F)(F)F)c12 | 28.2 µM | 63.1 µM | –
32 | Cn1nnnc1Sc1ncnc2scc(-c3ccc(S(C)(=O)=O)cc3)c12 | 15.8 µM | 7.94 µM | –
33 | Cn1nnnc1Sc1ncnc2scc(-c3ccc(C(=O)OC(C)(C)C)cc3)c12 | 35.5 µM | > 100 µM | –
34 | Cn1nnnc1Sc1ncnc2scc(-c3ccccc3[N+](=O)[O-])c12 | 15.8 µM | 11.2 µM | –
35 | Cn1nnnc1Sc1ncnc2scc(-c3cccc(C(F)(F)F)c3)c12 | 35.5 µM | 6.3 µM | –
36 | Cn1nnnc1Sc1ncnc2scc(-c3cccc(C#N)c3)c12 | 35.5 µM | 2.51 µM | –
37 | Cn1nnnc1Sc1ncnc2scc(-c3ccccc3C#N)c12 | – | 6.3 µM | –
38 | Cn1nnnc1Sc1ncnc2scc(-c3ccc(F)cc3)c12 | 20 µM | 12.6 µM | Activity (STHdhQ111 [8]): Active; Activity (STHdhQ111 [9]): Active
39 | Cn1nnnc1Sc1ncnc2scc(-c3ccc[nH]3)c12 | 31.6 µM | 5.62 µM | –
40 | Cn1nnnc1Sc1ncnc2scc(-c3ccc(C#N)cc3)c12 | 35.5 µM | 12.6 µM | –
41 | Cn1nnnc1Sc1ncnc2scc(-c3ccc(Cl)cc3)c12 | 39.8 µM | 28.2 µM | –
42 | Cc1ccc(-c2csc3ncnc(Sc4nnnn4C)c23)cc1 | 39.8 µM | 14.1 µM | –
43 | COc1ccccc1-c1csc2ncnc(Sc3nnnn3C)c12 | 31.6 µM | 79.4 µM | –
44 | Cn1nnnc1Sc1ncnc2scc(-c3ccc4c(=O)ccoc4c3)c12 | 35.5 µM | 1.99 µM | –
45 | COc1ccc(-c2csc3ncnc(Sc4nnnn4C)c23)cc1 | 39.8 µM | 11.2 µM | –
